Legend:
NLRP3 inflammasome = test: IL-1β release in BMDCs (ELISA); type: cell-based, mouse; conditions: supernatant
Experimental: FIGS. 5A-5C. TLR7 agonist-silica nanoshells conjugates generate high level of IL-1p in BMDCs. 75-2500 nM of TLR7 agonist-silcia shells conjugates were incubated with BMDCs for 24 hours at 37° C., 5% CO2. IL-1β level in supernatant was determined by ELISA. Mechanism figure reference: He, Y. et. al. (2016).
FIG. 24. In vitro IL-1β release of NS-TLR and mixture in BMDCs. 75-2500 nM of NS-TLR (high coating density) and mixture of silica nanoshells and 1V209 were incubated with wild type BMDCs for 18 hours. IL-1p cytokine was measured via ELISA. Dose response curves are in means SD. Data were analyzed by t test.
IL-1β secretion by dendritic cells is mandatory for T cell priming (Ghiringhelli et al., 2009). A two-pronged pathway has been proposed for NLRP3 inflammasome activation in macrophages and DCs. In this model, the first signal is triggered by microbial or endogenous molecules that generate NLRP3 and pro-IL-1p expression through activation of NF-κB; the second signal is triggered by ATP, pore-forming toxins, viral RNA and particulate matters such as silica nanoparticles. […] Resting DCs/macrophages have insufficient NLRP3 in the cells, and therefore, incubating with NLRP3 activator (silica nanoshells) results in no or minimal IL-1β.

TLR7 [1] = target: T1, TLR7 (Mus musculus, UniProt P58681); test: IL-6 release in mouse BMDCs (ELISA); type: cell-based
T1 construct: endogenous in cells; host or cells: mouse bone marrow-derived dendritic cells (BMDCs)
T1 sequence (P58681 27-1050): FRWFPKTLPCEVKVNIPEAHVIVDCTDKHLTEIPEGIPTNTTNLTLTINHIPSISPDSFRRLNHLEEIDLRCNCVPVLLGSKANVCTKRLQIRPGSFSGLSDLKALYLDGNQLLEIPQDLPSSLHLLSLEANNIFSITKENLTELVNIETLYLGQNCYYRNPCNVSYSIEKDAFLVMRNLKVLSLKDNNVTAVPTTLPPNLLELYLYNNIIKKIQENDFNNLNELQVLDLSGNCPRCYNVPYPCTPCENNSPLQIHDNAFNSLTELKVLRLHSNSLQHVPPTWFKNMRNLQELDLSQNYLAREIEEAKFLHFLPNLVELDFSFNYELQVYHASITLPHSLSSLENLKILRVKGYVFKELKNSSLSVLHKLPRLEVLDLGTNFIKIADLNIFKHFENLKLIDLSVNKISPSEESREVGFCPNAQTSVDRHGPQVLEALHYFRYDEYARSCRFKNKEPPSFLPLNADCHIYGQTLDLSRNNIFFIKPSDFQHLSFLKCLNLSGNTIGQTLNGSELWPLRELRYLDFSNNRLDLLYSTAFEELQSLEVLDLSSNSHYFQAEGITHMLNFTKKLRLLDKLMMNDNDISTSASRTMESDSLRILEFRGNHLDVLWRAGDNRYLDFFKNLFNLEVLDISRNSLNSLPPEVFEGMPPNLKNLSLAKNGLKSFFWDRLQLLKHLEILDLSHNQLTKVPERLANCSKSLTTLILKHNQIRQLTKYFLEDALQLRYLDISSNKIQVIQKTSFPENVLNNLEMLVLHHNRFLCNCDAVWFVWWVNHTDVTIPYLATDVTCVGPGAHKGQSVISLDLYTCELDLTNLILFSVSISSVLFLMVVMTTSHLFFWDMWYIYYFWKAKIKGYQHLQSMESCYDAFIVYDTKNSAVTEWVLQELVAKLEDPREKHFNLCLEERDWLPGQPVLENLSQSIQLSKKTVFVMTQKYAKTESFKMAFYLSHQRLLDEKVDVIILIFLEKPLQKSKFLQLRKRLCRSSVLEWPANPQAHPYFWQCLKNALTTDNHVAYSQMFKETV
Experimental: (§1) FIGS. 4A-4E. […] Mouse BMDCs or human PBMCs were plated and incubated with serially diluted 1V209 nanoshells conjugates at different coating densities (high, medium, or low density conjugates, unconjugated TLR7 ligand 1V209, or silica nanoshells for 18 hours. Control cells were treated with 1 μM resiquimod or 0.5% DMSO as vehicle. IL-6 (A) and IL-12 (B) released in the culture supernatants of mouse BMDCs were measured using ELISA. (C) Cytotoxicity in BMDCs was measured by MTT assay. (D) IL-6 released in the culture supernatants of human PBMCs. (E) IL-6 released in the culture supernatants BMDCs isolated from TLR7 deficient mice.
(§2) The correlation between TLR7 ligands density and cytokines induction level was further investigated. To test this, mouse bone marrow-derived dendritic cells (BMDCs) or human peripheral blood mononuclear cells (PBMCs) were treated with unconjugated 1V209, SiO2 nanoshells, or 1V209-nanoshell conjugates with different coating densities (high, medium, or low coating densities). The levels of IL-6 and IL-12 release in the culture supernatant were measured. […] Different formula of conjugates were also tested their cytotoxicity in BMDCs. […] To determine whether the immune potency of 1V209-nanoshell conjugates was TLR7 specific, conjugates was performed in TLR7 deficient BMDCs. […] Thus, high coating of TLR7 agonists silica shells are denoted as 1v209-NS conjugates in the following description.

TLR7 [2] = target: T1, TLR7; test: IL-12 release in mouse BMDCs (ELISA); type: cell-based
Experimental: as §1
FIG. 23. In vitro cytokine induction of NS-TLR in murine cells. Mouse BMDCs (10^5 cells) were plated and incubated with serially diluted 100 nm NS-TLR at different coating densities for 18 hours. IL-12 released in the culture supernatants of mouse BMDCs incubated with unconjugated 1V209, high, medium, low coating density NS-TLR, and silica shells. IL-12 cytokine was measured via ELISA. All data are representative dose response curves in mean±SD with triplicate technical repeats. Data are representative of three independent experiments showing similar results. Data were analyzed by two-way ANOVA with Tukey's post hoc analysis.
as §2

CT26 tumors = test: CT26 tumor model, intratumoral monotherapy (tumor growth, CD3 IHC, IFN-γ RT-qPCR); type: in vivo, mouse; conditions: single agent
Description: FIGS. 13A-13F. Tumor growth regression in mice treated with NS-TLR7a. BALB/c mice were implanted with CT26 cells and treatment began when tumors reached 100 mm^3. Mice (n=5/group) were randomized and treated with vehicle (PBS), silica NS, unconjugated agonist (TLR7a), or NS-TLR7a every other day. Tumor tissues were collected on day 10 post treatment for analysis. A) Protocol of treatment. B) Average tumor growth curves per treatment. (C and D) Immunohistochemistry (IHC) images of CD3^+ cells infiltrating into the tumor environments for (C) unconjugated TLR7a or (D) TLR7a-NS conjugates locally injected tumor. (E and F) IFN-γ gene expression level (E) and (F) quantified CD3^+ T cells (F) in tumor samples for vehicle, NS, TLR7a, and TLR7a-NS conjugate treated groups (n=4-5/group). Representative IHC images were shown. […]
Animals and Tumor Model: Mouse colon cancer cell line CT26 (Cat. No. CRL-2638) was purchased from American Type Culture Collection (ATCC). […] Tumor volume was determined by caliper with the formula: volume (mm^3)=(width×width×length)/2. […]
To test the anti-tumor effects of TLR7 with or without conjugation onto silica nanoshells in vivo, silica NS, unconjugated TLR7a (TLR7 agonist), and NS-TLR7a were tested in a CT26 mouse tumor model. […] On day 8, tumors were harvested for immunohistochemistry (IHC) analysis and CD3^+ cells were assessed as T cell population in the tumor microenvironment.

[3] = BMDCs, 18 hours, ELISA, means ± SD

COCCOc1nc(N)c2[nH]c(=O)n(Cc3ccc(C(=O)O)cc3)c2n1 [1V209, 4-[6-Amino-2-(2-methoxyethoxy)-8-oxo-7H-purin-9(8H)-yl]methylbenzoic acid] was tested, and the IL-1β level (NLRP3 inflammasome) was “very low levels or zero”, the “Emax, IL-6, normalized to unconjugated 1V209 (=1X)” value (TLR7 [1]) was 1 × and the EC50 (TLR7 [1]; [3]) was 1080 ± 101 nM. For the same compound, the “Emax, IL-6” value (TLR7 [1]; [3]) was 9.9 ± 1.0 ng/mL, the “Emax, IL-12, normalized to unconjugated 1V209 (=1X)” value (TLR7 [2]) was 1 × and the EC50 (TLR7 [2]; [3]) was 883 ± 193 nM. For the same compound, the “Emax, IL-12” value (TLR7 [2]; [3]) was 3.2 ± 2.3 ng/mL and the tumor remission (CT26 tumors) was “did not result in tumor remission”.

— patent publication US20210038742A1, “CONJUGATION OF TLR7 AGONIST TO NANO-MATERIALS ENHANCES THE AGONISTIC ACTIVITY” (priority 2019, published 2021)
